Data as given in patent US20110262508A1, “ANTIMICROBIAL COMPOSITIONS, FORMULATIONS AND USES THEREOF” (priority 2007, published 2011).
Where two headings read alike, the source gives them in different places. Peptide text beside a SMILES is read from it.

What was measured:
Format in all cases: cell-based
[1] = tested on: S. typhimurium strain AroA
Procedure: Synthetic peptides were tested for their ability to inhibit bacterial growth in liquid culture. […] 19606, Acinetobacter spp. ATCC 17903, Acinetobacter spp. ATCC 19004, Escherichia coli strain BL21, S. aureus, S. typhimurium strain AroA, P. aeruginosa or P. pneumotropica. After 5-6 hours of shaking at 37° C., growth was measured as absorbance at 595 nm. As a control, cultures were grown in the presence of 0.1% acetonitrile (i.e., the concentration present in 10 μM peptide).

[2] = tested on: A. baumannii ATCC 19606, Acinetobacter spp. ATCC 17903, Acinetobacter spp. ATCC 19004, E. coli BL21, S. aureus, S. typhimurium AroA, P. aeruginosa, P. …; test: Antibacterial spectrum over the serial dilution panel (Table 6); conditions: summary of Table 6
Procedure: Synthetic peptides were tested for their ability to inhibit bacterial growth in liquid culture. The peptides were added at a concentration of between about 5 μM and about 10 μM to individual wells of 96-deep-well dishes that contained liquid growth media freshly inoculated with one of the following bacteria: A. baumannii ATCC Accession No. 19606, Acinetobacter spp. ATCC 17903, Acinetobacter spp. ATCC 19004, Escherichia coli strain BL21, S. aureus, S. typhimurium strain AroA, P. aeruginosa or P. pneumotropica. After 5-6 hours of shaking at 37° C., growth was measured as absorbance at 595 nm. As a control, cultures were grown in the presence of 0.1% acetonitrile (i.e., the concentration present in 10 μM peptide).

A. baumannii = tested on: A. baumannii
Procedure, shortened: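 Laboratory strains and 50 clinical isolates of A. baumannii were tested by CLSI broth microdilution, with serially diluted peptide (0.1-64 μg) and about 1×10^5 C.F.U. per well, incubated aerobically overnight at 35±2° C. MIC was read visually. MBC came from subculturing clear wells, as ≥99.9% inoculum reduction.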

CC[C@H](C)[C@H](NC(=O)[C@H](CS)NC(=O)[C@H](CCCCN)NC(=O)[C@H](CC(C)C)NC(=O)[C@H](Cc1ccccc1)NC(=O)[C@H](CC(=O)O)NC(=O)[C@H](CC(C)C)NC(=O)[C@H](CCCNC(=N)N)NC(=O)[C@H](CC(N)=O)NC(=O)[C@H](Cc1ccccc1)NC(=O)CNC(=O)[C@@H](NC(=O)[C@@H](NC(=O)[C@H](Cc1c[nH]cn1)NC(=O)[C@H](CC(N)=O)NC(=O)[C@@H](NC(=O)[C@@H](NC(=O)[C@H](Cc1c[nH]cn1)NC(=O)[C@H](Cc1ccccc1)NC(=O)[C@H](CO)NC(=O)[C@@H](NC(=O)[C@@H](N)Cc1ccccc1)C(C)C)[C@@H](C)O)[C@@H](C)O)C(C)C)[C@@H](C)CC)C(=O)N[C@@H](CO)C(=O)O [Ac3] (H-FVSFHTTNHVIGFNRLDFLKCIS-OH; N-terminus and C-terminus assumed)
% inhibition of bacterial growth by peptide ([1]; 5 μM peptide): 2%
% inhibition of bacterial growth by peptide ([1]; 10 μM peptide): 2%
% inhibition of bacterial growth by peptide ([1]; 15 μM peptide): 6%
% inhibition of bacterial growth by peptide ([1]; 20 μM peptide): 18%
selectively inhibited growth of A. baumannii ATCC Accession No. 19606, Acinetobacter spp. ATCC 17903, Acinetobacter spp. ATCC 19004, and S. aureus [2]: selectively inhibited growth

CC[C@H](C)[C@H](NC(=O)[C@H](Cc1c[nH]c2ccccc12)NC(=O)[C@H](CC(=O)O)NC(=O)[C@H](CO)NC(=O)[C@H](CS)NC(=O)[C@H](CC(C)C)NC(=O)[C@H](CC(C)C)NC(=O)[C@H](C)NC(=O)[C@H](CS)NC(=O)[C@H](CCCNC(=N)N)NC(=O)[C@H](CC(C)C)NC(=O)[C@H](CCCNC(=N)N)NC(=O)[C@H](C)NC(=O)CN)C(=O)N[C@H](C(=O)N[C@@H](CO)C(=O)N[C@@H](CS)C(=O)N[C@@H](CCCNC(=N)N)C(=O)N[C@@H](CC(C)C)C(=O)N[C@@H](CC(C)C)C(=O)NCC(=O)N[C@H](C(=O)N[C@@H](CC(N)=O)C(=O)O)C(C)C)C(C)C [Ac40] (H-GARLRCALLCSDWIVSCRLLGVN-OH; N-terminus and C-terminus assumed)
MIC (μM) for amidated peptide (A. baumannii): 10 to 15 µM
MIC (μM) for non-amidated Peptide (A. baumannii): 10 to 15 µM
selectively inhibited growth of A. baumannii ATCC Accession No. 19606, Acinetobacter spp. ATCC 17903, Acinetobacter spp. ATCC 19004, and S. aureus [2]: selectively inhibited growth

C[C@@H](O)[C@H](NC(=O)[C@H](CS)NC(=O)[C@H](CO)NC(=O)[C@@H](N)Cc1c[nH]cn1)C(=O)N[C@H](C(=O)N1CCC[C@H]1C(=O)N[C@@H](CC(N)=O)C(=O)N[C@H](C(=O)N1CCC[C@H]1C(=O)N[C@@H](CCC(N)=O)C(=O)N[C@@H](CCC(N)=O)C(=O)N1CCC[C@H]1C(=O)N[C@@H](Cc1c[nH]cn1)C(=O)N1CCC[C@H]1C(=O)N[C@@H](Cc1c[nH]cn1)C(=O)N[C@@H](Cc1c[nH]cn1)C(=O)N[C@@H](CCCNC(=N)N)C(=O)N[C@@H](Cc1c[nH]cn1)C(=O)N[C@@H](CCCNC(=N)N)C(=O)N[C@@H](CCCNC(=N)N)C(=O)N[C@@H](Cc1c[nH]cn1)C(=O)N[C@@H](CCCNC(=N)N)C(=O)N[C@@H](Cc1c[nH]cn1)C(=O)O)[C@@H](C)O)[C@@H](C)O [Ac46] (H-HSCTTPNTPQQPHPHHRHRRHRH-OH; N-terminus and C-terminus assumed)
% inhibition of bacterial growth by peptide ([1]; 5 μM peptide): 3%
% inhibition of bacterial growth by peptide ([1]; 10 μM peptide): 16%
% inhibition of bacterial growth by peptide ([1]; 15 μM peptide): 18%
% inhibition of bacterial growth by peptide ([1]; 20 μM peptide): 36%
selectively inhibited growth of Acinetobacter spp. ATCC 19004, and S. aureus [2]: selectively inhibited growth

C[C@H](NC(=O)[C@@H](NC(=O)CNC(=O)[C@@H]1CCCN1C(=O)[C@H](Cc1c[nH]cn1)NC(=O)[C@H](CCCNC(=N)N)NC(=O)[C@H](Cc1c[nH]cn1)NC(=O)[C@H](CCCNC(=N)N)NC(=O)[C@H](Cc1c[nH]cn1)NC(=O)[C@H](CCCNC(=N)N)NC(=O)[C@H](CCCNC(=N)N)NC(=O)[C@H](Cc1c[nH]cn1)NC(=O)[C@H](CCCNC(=N)N)NC(=O)[C@H](Cc1c[nH]cn1)NC(=O)[C@H](Cc1c[nH]cn1)NC(=O)[C@@H]1CCCN1C(=O)[C@H](Cc1c[nH]cn1)NC(=O)[C@@H]1CCCN1C(=O)[C@H](CCC(N)=O)NC(=O)[C@H](CCC(N)=O)NC(=O)[C@@H]1CCCN1C(=O)[C@@H](NC(=O)[C@@H](N)CC(N)=O)[C@@H](C)O)[C@@H](C)O)C(=O)O [Ac47] (H-NTPQQPHPHHRHRRHRHRHPGTA-OH; N-terminus and C-terminus assumed)
% inhibition of bacterial growth by peptide ([1]; 5 μM peptide): 13%
% inhibition of bacterial growth by peptide ([1]; 10 μM peptide): 25%
% inhibition of bacterial growth by peptide ([1]; 15 μM peptide): 29%
% inhibition of bacterial growth by peptide ([1]; 20 μM peptide): 50%
selectively inhibited growth of Acinetobacter spp. ATCC 19004, and S. aureus [2]: selectively inhibited growth

C[C@H](NC(=O)[C@H](CO)NC(=O)[C@H](CCCNC(=N)N)NC(=O)CNC(=O)[C@H](CCCNC(=N)N)NC(=O)CNC(=O)[C@H](CO)NC(=O)[C@H](CO)NC(=O)[C@H](CCCNC(=N)N)NC(=O)CNC(=O)[C@@H]1CCCN1C(=O)[C@@H]1CCCN1C(=O)[C@H](CO)NC(=O)[C@H](CCCNC(=N)N)NC(=O)[C@@H]1CCCN1C(=O)[C@H](CO)NC(=O)[C@@H]1CCCN1C(=O)[C@@H](NC(=O)[C@H](CCCNC(=N)N)NC(=O)CNC(=O)[C@@H](N)Cc1c[nH]c2ccccc12)[C@@H](C)O)C(=O)N[C@@H](CO)C(=O)N[C@@H](CS)C(=O)O [Ac66] (H-WGRTPSPRSPPGRSSGRGRSASC-OH; N-terminus and C-terminus assumed)
% inhibition of bacterial growth by peptide ([1]; 12.5 μM peptide): 0%
% inhibition of bacterial growth by peptide ([1]; 15 μM peptide): 0%
% inhibition of bacterial growth by peptide ([1]; 17.5 μM peptide): 0%
% inhibition of bacterial growth by peptide ([1]; 20 μM peptide): 0%
selectively inhibited growth of Acinetobacter spp. ATCC 19004, and S. aureus [2]: selectively inhibited growth

CC(C)C[C@H](NC(=O)[C@H](C)NC(=O)[C@H](CS)NC(=O)[C@H](CO)NC(=O)[C@H](C)NC(=O)[C@H](CO)NC(=O)[C@H](CCCNC(=N)N)NC(=O)CN)C(=O)N[C@@H](CCCNC(=N)N)C(=O)N[C@@H](Cc1c[nH]c2ccccc12)C(=O)N[C@@H](C)C(=O)NCC(=O)N1CCC[C@H]1C(=O)N[C@@H](CC(C)C)C(=O)N1CCC[C@H]1C(=O)N[C@@H](CCCCN)C(=O)NCC(=O)N[C@@H](CCCNC(=N)N)C(=O)NCC(=O)N[C@@H](CCCCN)C(=O)N[C@@H](Cc1c[nH]c2ccccc12)C(=O)N[C@@H](Cc1c[nH]c2ccccc12)C(=O)N[C@@H](CS)C(=O)O [Ac68] (H-GRSASCALRWAGPLPKGRGKWWC-OH; N-terminus and C-terminus assumed)
% inhibition of bacterial growth by peptide ([1]; 12.5 μM peptide): 0%
% inhibition of bacterial growth by peptide ([1]; 15 μM peptide): 0%
% inhibition of bacterial growth by peptide ([1]; 17.5 μM peptide): 0%
% inhibition of bacterial growth by peptide ([1]; 20 μM peptide): 0%
selectively inhibited growth of Acinetobacter spp. ATCC 19004 [2]: selectively inhibited growth

CSCC[C@H](NC(=O)[C@H](CCCCN)NC(=O)[C@H](CC(C)C)NC(=O)[C@H](CC(C)C)NC(=O)[C@H](Cc1ccccc1)NC(=O)[C@H](Cc1ccccc1)NC(=O)[C@@H](N)Cc1ccccc1)C(=O)N[C@@H](CC(N)=O)C(=O)N[C@@H](Cc1ccc(O)cc1)C(=O)N[C@@H](CC(N)=O)C(=O)N[C@@H](C)C(=O)N[C@H](C(=O)N[C@@H](Cc1c[nH]cn1)C(=O)N[C@@H](CC(C)C)C(=O)N[C@@H](C)C(=O)NCC(=O)N[C@@H](CCCNC(=N)N)C(=O)N[C@@H](CCC(=O)O)C(=O)N[C@@H](Cc1ccccc1)C(=O)O)[C@@H](C)O [Ac88] (H-FFFLLKMNYNATHLAGREF-OH; N-terminus and C-terminus assumed)
% inhibition of bacterial growth by peptide ([1]; 5 μM peptide): 0%
% inhibition of bacterial growth by peptide ([1]; 10 μM peptide): 0%
% inhibition of bacterial growth by peptide ([1]; 15 μM peptide): 0%
% inhibition of bacterial growth by peptide ([1]; 20 μM peptide): 13%
selectively inhibited growth of S. aureus [2]: selectively inhibited growth

CC[C@H](C)[C@H](NC(=O)[C@H](CCCCN)NC(=O)[C@@H](NC(=O)[C@H](CCCNC(=N)N)NC(=O)[C@H](CO)NC(=O)[C@H](Cc1ccccc1)NC(=O)[C@H](CS)NC(=O)[C@H](CC(N)=O)NC(=O)[C@@H]1CCCN1C(=O)[C@H](CC(=O)O)NC(=O)CN)C(C)C)C(=O)N[C@@H](CC(C)C)C(=O)N[C@@H](C)C(=O)N[C@@H](CS)C(=O)O [Ac96] (H-GDPNCFSRVKILAC-OH)
% inhibition of bacterial growth by peptide ([1]; 12.5 μM peptide): 0%
% inhibition of bacterial growth by peptide ([1]; 15 μM peptide): 6%
% inhibition of bacterial growth by peptide ([1]; 17.5 μM peptide): 0%
% inhibition of bacterial growth by peptide ([1]; 20 μM peptide): 0%
selectively inhibited growth of Acinetobacter spp. ATCC 19004, and S. aureus [2]: selectively inhibited growth

CC[C@H](C)[C@H](NC(=O)[C@H](Cc1ccccc1)NC(=O)[C@H](CCC(N)=O)NC(=O)[C@H](CO)NC(=O)[C@H](Cc1ccccc1)NC(=O)[C@H](Cc1c[nH]cn1)NC(=O)[C@H](CCCNC(=N)N)NC(=O)[C@H](Cc1c[nH]cn1)NC(=O)[C@@H](NC(=O)[C@H](CCCNC(=N)N)NC(=O)[C@H](CC(C)C)NC(=O)CNC(=O)[C@H](CC(C)C)NC(=O)[C@H](CC(=O)O)NC(=O)[C@H](CCCNC(=N)N)NC(=O)[C@@H](NC(=O)[C@H](CCC(N)=O)NC(=O)[C@H](CCCNC(=N)N)NC(=O)[C@@H](N)CCCNC(=N)N)C(C)C)C(C)C)C(=O)N[C@@H](CC(N)=O)C(=O)N[C@@H](CCCNC(=N)N)C(=O)N[C@@H](CO)C(=O)NCC(=O)O [Ac173] (H-RRQVRDLGLRVHRHFSQFINRSG-OH; N-terminus and C-terminus assumed)
% inhibition of bacterial growth by peptide ([1]; 12.5 μM peptide): 0%
% inhibition of bacterial growth by peptide ([1]; 15 μM peptide): 0%
% inhibition of bacterial growth by peptide ([1]; 17.5 μM peptide): 0%
% inhibition of bacterial growth by peptide ([1]; 20 μM peptide): 0%
selectively inhibited growth of Acinetobacter spp. ATCC 19004 [2]: selectively inhibited growth
